Among the data in ChEMBL document CHEMBL1201862, “PubChem BioAssay data set” (2004) are IC50, AC50 and CC50 values, retold here.

Assay [1] concerns the target Disintegrin and metalloproteinase domain-containing protein 17 (Homo sapiens, UniProt P78536). The experiment in a line: exosite inhibitors of ADAM17, dose response, biochemical (AID 743260).
In assay [2] the target is Latent membrane protein 1 (Human herpesvirus 4 (strain B95-8), UniProt P03230). The experiment in a line: LMP1 TES1 pathway selectivity over dsRED control – imaging, HEK293T, dual-color eGFP/dsRED, cherry-picks, selectivity assay for LMP1 NF-kB inhibitor project, dose response (AID 588398). In kind it is functional, cell-based.
Assay [3] in a line: inhibition of ADAM10 peptide cleavage – biochemical, FRET peptide substrate, recombinant human ADAM10, selectivity assay for ADAM17 exosite inhibitor project, dose response (AID 743259).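 Also: ADAM10 enzyme cleaving a FRET peptide substrate.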
Assay [4] is described as follows: THP-1 cell cytotoxicity, dose response, cytotoxicity control for non-replicating M. tuberculosis project (AID 489025). Type of assay: functional.
Assay [5] is described as follows: Vero E6 cell cytotoxicity, dose response, cytotoxicity control for non-replicating M. tuberculosis project, secondary assay (AID 492998). Type of assay: functional, VeroE6. The conditions noted are these: Vero C1008.
For the next assay, the system named is CHO. Put plainly: CHO cell viability loss, potency – luminescence, cytotoxicity control for TLR9-MyD88 binding inhibitor project, dose response (AID 588339).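 Also: CHO cells stably coexpressing TLR9 and MyD88 fusions from primary screen; compound exposure lasted 48 hours before viability readout.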 Conditions: Cricetulus griseus. In kind it is functional, cell-based, hamster.
The next assay is described as follows: cells. Type of assay: functional.
The next assay addresses Beta Lactamase (Pseudomonas aeruginosa, UniProt Q932Y6). Put plainly: BLA reporter interference, concentration series – BLA reporter cells, FRET fluorescence, artefact control for TLR9-MyD88 binding inhibitor project, dose response (AID 588341).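 Also: cell based assay in CHO-K1 cells stably expressing beta-lactamase.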 In kind it is cell-based.
The target of assay [6] is T1, Caspase-3 (Homo sapiens, UniProt P42574).
T1 sequence (P42574 whole entry): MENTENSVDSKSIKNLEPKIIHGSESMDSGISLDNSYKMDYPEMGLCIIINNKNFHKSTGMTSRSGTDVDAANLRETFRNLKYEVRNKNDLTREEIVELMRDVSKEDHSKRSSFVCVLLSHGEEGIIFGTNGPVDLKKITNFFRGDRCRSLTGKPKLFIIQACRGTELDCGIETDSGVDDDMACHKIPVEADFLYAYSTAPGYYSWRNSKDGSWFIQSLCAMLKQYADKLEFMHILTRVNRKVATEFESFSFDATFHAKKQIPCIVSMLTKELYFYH
The experiment in a line: inhibition of recombinant caspase-3 activity – biochemical, luminescence, set 2, selectivity assay for SENP protease inhibitor project, SAR follow-up (AID 588599). In kind it is functional.

Assay [7] addresses T1, Caspase-3. The experiment in a line: SAR Analysis of small molecule inhibitors of Sentrin-specific proteases (SENPs) using a Caspase-3 Selectivity assay. [Related pubchem assays (depositor defined):AID2540, AID2599, AID434973, AID489001]. In kind it is functional.
Assay [8] deals with T2, Sentrin-specific protease 7 (Homo sapiens, UniProt Q9BQF6).
T2 sequence (Q9BQF6 whole entry): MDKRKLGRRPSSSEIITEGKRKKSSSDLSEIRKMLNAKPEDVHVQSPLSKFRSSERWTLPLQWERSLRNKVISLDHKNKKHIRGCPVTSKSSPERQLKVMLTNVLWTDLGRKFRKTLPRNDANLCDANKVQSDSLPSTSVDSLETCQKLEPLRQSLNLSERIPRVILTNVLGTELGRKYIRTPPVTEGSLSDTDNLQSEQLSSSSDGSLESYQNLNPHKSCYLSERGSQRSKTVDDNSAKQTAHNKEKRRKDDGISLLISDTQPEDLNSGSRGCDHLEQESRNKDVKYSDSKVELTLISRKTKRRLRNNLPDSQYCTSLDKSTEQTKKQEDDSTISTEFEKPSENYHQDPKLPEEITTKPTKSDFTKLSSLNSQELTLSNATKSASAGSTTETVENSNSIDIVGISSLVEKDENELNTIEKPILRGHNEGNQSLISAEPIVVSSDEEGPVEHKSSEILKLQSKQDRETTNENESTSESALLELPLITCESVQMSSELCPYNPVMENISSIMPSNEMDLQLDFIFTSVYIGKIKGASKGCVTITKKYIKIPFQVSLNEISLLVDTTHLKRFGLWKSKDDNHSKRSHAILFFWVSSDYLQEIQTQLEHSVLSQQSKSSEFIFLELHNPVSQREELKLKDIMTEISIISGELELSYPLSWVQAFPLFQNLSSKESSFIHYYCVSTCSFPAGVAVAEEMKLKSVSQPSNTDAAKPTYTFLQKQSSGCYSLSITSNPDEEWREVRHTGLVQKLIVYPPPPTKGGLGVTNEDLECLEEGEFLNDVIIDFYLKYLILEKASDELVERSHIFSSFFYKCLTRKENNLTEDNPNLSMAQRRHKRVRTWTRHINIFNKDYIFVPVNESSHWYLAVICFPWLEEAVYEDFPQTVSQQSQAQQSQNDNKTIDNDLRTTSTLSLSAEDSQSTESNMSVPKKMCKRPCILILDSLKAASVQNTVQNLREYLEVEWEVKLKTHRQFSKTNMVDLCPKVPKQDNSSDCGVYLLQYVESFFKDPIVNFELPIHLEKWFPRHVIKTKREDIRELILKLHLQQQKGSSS
Put plainly: inhibition of human SENP7 cleavage activity – biochemical, luminescence, SAR follow-up (AID 504497). In kind it is functional.

Assay [9] deals with T3, Sentrin-specific protease 6 (Homo sapiens, UniProt Q9GZR1).
T3 sequence (Q9GZR1 whole entry): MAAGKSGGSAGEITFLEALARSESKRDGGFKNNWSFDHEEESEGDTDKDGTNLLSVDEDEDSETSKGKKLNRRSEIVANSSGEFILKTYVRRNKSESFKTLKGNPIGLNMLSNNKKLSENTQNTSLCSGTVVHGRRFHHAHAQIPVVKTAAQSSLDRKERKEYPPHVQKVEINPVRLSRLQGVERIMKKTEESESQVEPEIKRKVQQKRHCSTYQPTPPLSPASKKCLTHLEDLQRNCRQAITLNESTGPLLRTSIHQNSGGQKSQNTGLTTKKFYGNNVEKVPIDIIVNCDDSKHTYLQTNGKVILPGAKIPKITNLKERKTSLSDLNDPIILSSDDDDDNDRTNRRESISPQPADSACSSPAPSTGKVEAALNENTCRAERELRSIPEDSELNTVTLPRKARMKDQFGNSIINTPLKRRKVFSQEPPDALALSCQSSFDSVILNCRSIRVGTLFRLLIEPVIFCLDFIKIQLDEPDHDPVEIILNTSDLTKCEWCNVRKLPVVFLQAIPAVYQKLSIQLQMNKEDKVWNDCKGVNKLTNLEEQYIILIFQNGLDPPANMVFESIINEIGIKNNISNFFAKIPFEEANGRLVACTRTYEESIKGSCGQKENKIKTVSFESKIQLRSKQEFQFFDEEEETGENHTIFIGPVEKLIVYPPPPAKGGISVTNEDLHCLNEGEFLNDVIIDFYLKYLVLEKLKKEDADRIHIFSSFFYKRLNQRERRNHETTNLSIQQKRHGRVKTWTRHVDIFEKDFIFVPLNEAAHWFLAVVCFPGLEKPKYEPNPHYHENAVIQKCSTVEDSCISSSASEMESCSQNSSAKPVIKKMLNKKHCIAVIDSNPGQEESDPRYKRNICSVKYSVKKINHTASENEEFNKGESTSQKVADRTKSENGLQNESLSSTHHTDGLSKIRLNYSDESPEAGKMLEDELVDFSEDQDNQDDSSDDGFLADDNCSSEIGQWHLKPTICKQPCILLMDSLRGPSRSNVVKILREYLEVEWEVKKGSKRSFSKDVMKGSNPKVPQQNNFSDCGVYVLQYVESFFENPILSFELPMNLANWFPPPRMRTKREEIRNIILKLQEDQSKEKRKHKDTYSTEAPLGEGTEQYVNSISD
Put plainly: SAR Analysis of small molecule inhibitors of Sentrin-specific protease 6 (SENP6) using a Luminescent assay. [Related pubchem assays (depositor defined):AID2582, AID2599]. In kind it is functional.

For assay [10], the target named is T4, Sentrin-specific protease 8 (Homo sapiens, UniProt Q96LD8).
T4 sequence (Q96LD8 whole entry): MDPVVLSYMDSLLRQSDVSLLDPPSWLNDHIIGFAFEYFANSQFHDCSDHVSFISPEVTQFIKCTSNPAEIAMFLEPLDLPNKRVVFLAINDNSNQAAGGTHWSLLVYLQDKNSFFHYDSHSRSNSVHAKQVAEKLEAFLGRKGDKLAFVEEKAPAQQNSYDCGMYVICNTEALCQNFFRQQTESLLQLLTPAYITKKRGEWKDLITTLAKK
The experiment in a line: inhibition of sentrin protease 8 – biochemical, luminescence, set 2, SAR follow-up (AID 588601). In kind it is functional.

Assay [11] deals with T3, Sentrin-specific protease 6. Put plainly: inhibition of human SENP6 catalytic domain – biochemical, luminescence, set 2, SAR follow-up (AID 588598). Type of assay: functional.
The target of assay [12] is T4, Sentrin-specific protease 8. The experiment in a line: inhibition of human SENP8 cleavage activity – biochemical, luminescence, SAR follow-up (AID 504501). Type of assay: functional.
Assay [13] has as its target DNA dC->dU-editing enzyme APOBEC-3G (Homo sapiens, UniProt Q9HC16). The experiment in a line: inhibition of APOBEC3G ssDNA deamination – biochemical, fluorescence, single-stranded DNA substrate, SAR follow-up (AID 602136). Type of assay: functional. The conditions noted are these: read-out: IC50_Mean.
Assay [14] addresses DNA dC->dU-editing enzyme APOBEC-3A (Homo sapiens, UniProt P31941). Put plainly: SAR analysis of small molecule inhibitors of APOBEC3A DNA Deaminase via a fluorescence-based single-stranded DNA deaminase assay. In kind it is functional. The conditions noted are these: read-out: IC50_Mean.

Active and inactive are the calls of the source.

What is called AC50 is the midpoint of the concentration-response curve, whichever way the signal moves. As usually defined, the CC50 is the concentration giving 50% cytotoxicity.

Chain of Latent membrane protein 1 (P03230 whole entry): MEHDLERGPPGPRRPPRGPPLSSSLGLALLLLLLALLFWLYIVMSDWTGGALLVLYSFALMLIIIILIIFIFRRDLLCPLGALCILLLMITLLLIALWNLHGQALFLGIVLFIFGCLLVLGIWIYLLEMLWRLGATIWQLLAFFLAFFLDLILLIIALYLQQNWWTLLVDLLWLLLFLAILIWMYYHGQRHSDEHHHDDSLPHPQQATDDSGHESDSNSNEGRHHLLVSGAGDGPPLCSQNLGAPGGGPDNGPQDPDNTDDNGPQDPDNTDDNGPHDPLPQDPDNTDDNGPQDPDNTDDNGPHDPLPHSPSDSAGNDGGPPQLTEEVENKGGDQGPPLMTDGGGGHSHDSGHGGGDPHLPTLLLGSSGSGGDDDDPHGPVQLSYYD
Chain of DNA dC->dU-editing enzyme APOBEC-3G (Q9HC16 whole entry): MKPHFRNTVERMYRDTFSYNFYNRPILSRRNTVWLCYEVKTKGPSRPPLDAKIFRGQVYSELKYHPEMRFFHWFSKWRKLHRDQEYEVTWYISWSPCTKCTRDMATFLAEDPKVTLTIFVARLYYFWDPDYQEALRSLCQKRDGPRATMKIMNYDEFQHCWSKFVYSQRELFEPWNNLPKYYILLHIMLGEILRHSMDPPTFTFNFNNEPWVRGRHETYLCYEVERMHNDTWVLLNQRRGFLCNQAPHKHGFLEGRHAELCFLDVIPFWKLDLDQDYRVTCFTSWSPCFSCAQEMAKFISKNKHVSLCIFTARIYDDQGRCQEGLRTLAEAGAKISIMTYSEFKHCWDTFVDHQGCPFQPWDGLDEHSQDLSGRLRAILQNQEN
Chain of DNA dC->dU-editing enzyme APOBEC-3A (P31941 whole entry): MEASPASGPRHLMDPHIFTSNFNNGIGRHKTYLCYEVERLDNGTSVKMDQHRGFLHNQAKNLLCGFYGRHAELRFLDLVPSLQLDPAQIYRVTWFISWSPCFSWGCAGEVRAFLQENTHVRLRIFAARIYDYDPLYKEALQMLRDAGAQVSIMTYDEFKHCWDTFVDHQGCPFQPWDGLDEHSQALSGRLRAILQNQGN
Chain of Beta Lactamase (Q932Y6 whole entry): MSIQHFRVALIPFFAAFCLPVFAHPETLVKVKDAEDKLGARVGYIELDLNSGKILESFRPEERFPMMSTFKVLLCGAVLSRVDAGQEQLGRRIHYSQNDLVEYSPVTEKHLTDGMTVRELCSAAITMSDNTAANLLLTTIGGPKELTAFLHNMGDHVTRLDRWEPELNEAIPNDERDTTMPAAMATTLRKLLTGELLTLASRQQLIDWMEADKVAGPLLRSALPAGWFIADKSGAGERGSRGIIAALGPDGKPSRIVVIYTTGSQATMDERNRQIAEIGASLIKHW
Chain of Disintegrin and metalloproteinase domain-containing protein 17 (P78536 whole entry, the tested form may be a part): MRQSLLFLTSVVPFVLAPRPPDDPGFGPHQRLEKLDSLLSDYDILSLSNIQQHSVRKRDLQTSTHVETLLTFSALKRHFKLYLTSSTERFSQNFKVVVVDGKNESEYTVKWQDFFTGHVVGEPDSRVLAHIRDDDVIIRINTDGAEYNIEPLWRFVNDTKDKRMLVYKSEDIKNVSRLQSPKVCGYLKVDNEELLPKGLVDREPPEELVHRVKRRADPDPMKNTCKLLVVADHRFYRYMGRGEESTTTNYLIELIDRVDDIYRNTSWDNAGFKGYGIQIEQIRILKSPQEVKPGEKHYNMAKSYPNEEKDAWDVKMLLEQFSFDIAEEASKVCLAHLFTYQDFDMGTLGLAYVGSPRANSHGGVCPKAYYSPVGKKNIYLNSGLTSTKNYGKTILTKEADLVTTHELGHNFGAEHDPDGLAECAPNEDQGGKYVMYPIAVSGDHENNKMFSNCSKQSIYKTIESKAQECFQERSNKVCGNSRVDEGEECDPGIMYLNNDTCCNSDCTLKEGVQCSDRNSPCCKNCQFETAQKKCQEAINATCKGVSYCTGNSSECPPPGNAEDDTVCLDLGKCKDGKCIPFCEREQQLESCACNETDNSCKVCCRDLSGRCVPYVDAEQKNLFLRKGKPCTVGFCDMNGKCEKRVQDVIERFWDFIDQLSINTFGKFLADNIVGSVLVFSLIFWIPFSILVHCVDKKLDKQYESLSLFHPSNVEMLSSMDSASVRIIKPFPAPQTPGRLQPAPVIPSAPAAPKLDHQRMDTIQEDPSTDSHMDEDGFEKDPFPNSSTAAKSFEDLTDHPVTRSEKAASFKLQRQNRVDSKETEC

As for `COc1ccc(CN(C(=O)c2nsc(Cl)c2Cl)C(C(=O)NC2CCCC2)c2ccc(C)cc2)cc1` (configuration not stated), the IC50 in assay [1] was > 69.5 µM (inactive); in assay [3], > 7.72 µM (active). For the same molecule, in [2], the AC50 is 27.6 µM (active).

Consider `CC(=O)Oc1ccc(N2C(=O)c3cccc4c([N+](=O)[O-])ccc(c34)C2=O)cc1`, for which the CC50 in [4] is 6.74 µM (active); in assay [5] it was > 20 µM (active). Moreover, the values for the IC50 in the assay on CHO, in “cells” and on Beta Lactamase were 6.34 µM (active), 9.16 µM (active) and 4.06 µM (active), respectively.

As for `COc1ccccc1OCc1nc(-c2ccccc2Cl)no1`, the IC50 on Caspase-3 [6] is 3.23 µM (active); at Caspase-3 [7], 2.9 µM (active); in assay [8], 2.1 µM (active); in [9], 4.7 µM (active); in assay [10] it was 2 µM (active); in assay [11], 2.08 µM (active). Further, in [12], the IC50 is 4.9 µM (active).

For the molecule `COc1ccc(-c2nnc(SCc3coc(-c4cccs4)n3)[nH]2)cc1`, the IC50 in assay [13] and in assay [14] was > 99 µM (inactive) throughout.
